Source: patent US20060106048A1, “Furoisoquinoline derivative and use thereof” (priority 2002, published 2006)
Structures can show the parent of a compound that is named as a salt.

Target: T1, recombinant human brain-derived phosphodiesterase 4D3 (Homo sapiens, UniProt Q08499)
T1 construct: GST; made in house; host or cells: Escherichia coli BL21/pPDE4D3 (FERM BP-7075)
Assay: Assay of phosphodiesterase IV-inhibiting action (SPA, [3H]cAMP)
Type: biochemical
Settings: recombinant human brain-derived phosphodiesterase 4D3, [3H]cAMP, 30 minutes at 30° C.; activity without compound = 100%; read-out: Phosphodiesterase 4D inhibiting action (IC50)
Excerpt: Assay of Phosphodiesterase IV-Inhibiting Action
(1) Expression of Recombinant Human Brain-Derived Phosphodiesterase 4D3 in Escherichia coli and Purification Thereof.
Using the Escherichia coli BL21/pPDE4D3 (FERM BP-7075) producing recombinant human brain-derived phosphodiesterase 4D3, a recombinant human brain-derived phosphodiesterase 4D3 was obtained. The expression and purification of E. coli were in accordance with the protocol attached to GST Gene Fusion System (Pharmacia).
(2) Assay of Phosphodiesterase IV-Inhibiting Action
To a 96-well plate (OPTI plate, Packard), 10 μl of a buffer solution [0.5 M Tris-HCl (pH 7.5), 83 mM MgCl2, 17 mM EGTA], 10 μl of the recombinant human brain-derived phosphodiesterase 4D3 (0.0034 mg/ml) obtained in Section (1) described above, 65 μl of Ultrapure water, 5 μl of an inhibitor sample and 10 μl of [^3H] cAMP were added and reacted for 30 minutes at 30° C. After completing the reaction, 50 μl of SPA beads solution [18 mg/ml Yttrium silicate beads, 18 mM ZnSO4] was added thereto, and the mixture was allowed to stand at room temperature for about 20 minutes. The radioactivity was counted using a scintillation counter (Topcount, Packard). Inhibiting activity of the compound against recombinant human brain-derived phosphodiesterase 4D3 was calculated, based on that enzymatic activity under absence of the compound was 100%.

T1 sequence (Q08499 1-673 isoform Q08499-2): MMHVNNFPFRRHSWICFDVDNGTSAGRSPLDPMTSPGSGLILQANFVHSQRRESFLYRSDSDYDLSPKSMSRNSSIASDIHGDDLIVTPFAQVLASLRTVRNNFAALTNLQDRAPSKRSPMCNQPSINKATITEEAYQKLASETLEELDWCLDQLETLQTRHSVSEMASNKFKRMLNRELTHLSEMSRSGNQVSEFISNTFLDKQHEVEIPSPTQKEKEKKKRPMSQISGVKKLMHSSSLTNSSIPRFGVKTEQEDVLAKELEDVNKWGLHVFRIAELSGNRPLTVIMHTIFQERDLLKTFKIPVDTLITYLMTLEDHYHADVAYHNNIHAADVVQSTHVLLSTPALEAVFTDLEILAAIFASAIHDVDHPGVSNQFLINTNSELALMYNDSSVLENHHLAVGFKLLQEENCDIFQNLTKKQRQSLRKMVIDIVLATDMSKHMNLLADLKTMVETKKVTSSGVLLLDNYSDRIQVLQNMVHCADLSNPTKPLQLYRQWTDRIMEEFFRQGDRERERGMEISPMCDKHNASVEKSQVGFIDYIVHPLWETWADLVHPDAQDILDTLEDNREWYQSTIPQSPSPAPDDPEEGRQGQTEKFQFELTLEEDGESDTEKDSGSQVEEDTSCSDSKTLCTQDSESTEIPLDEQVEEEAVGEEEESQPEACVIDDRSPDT

| Structure (SMILES) | IC50 |
| --- | --- |
| CCOc1cc2c(c3c1OC(C)(C)C3)C(c1ccc(CC(=O)O)c(NC(=O)c3ccccn3)c1)=NC(C)(C)C2 [Example 124, 4-(6-Ethoxy-3,4,8,9-tetrahydro-3,3,8,8-tetramethylfuro[2,3-h]isoquinolin-1-yl)-2-[(2-pyridinylcarbonyl)amino]benzeneacetic acid] | 0.637 nM |
| CCOc1cc2c(c3c1OC(C)(C)C3)C(c1ccc(COCC(=O)O)cc1)=NC(C)(C)C2 [Example 95, [[4-(6-Ethoxy-3,4,8,9-tetrahydro-3,3,8,8-tetramethylfuro[2,3-h]isoquinolin-1-yl)phenyl]methoxy]acetic acid hydrochloride] | 10.9 nM |
| CCOc1cc2c(c3c1OC(C)(C)C3)C(c1ccc(COCC(=O)OC)cc1)=NC(C)(C)C2 [Example 94, Methyl [[4-(6-ethoxy-3,4,8,9-tetrahydro-3,3,8,8-tetramethylfuro[2,3-h]isoquinolin-1-yl)phenyl]methoxy]acetate hydrochloride] | 3.27 nM |
| CCOc1cc2c(c3c1OC(C)(C)C3)C(c1ccc(C(=O)OC)c(NC(=O)c3ccccn3)c1)=NC(C)(C)C2 [Example 21, Methyl 4-(6-ethoxy-3,4,8,9-tetrahydro-3,3,8,8-tetramethylfuro[2,3-]isoquinolin-1-yl)-2-[(2-pyridinylcarbonyl)amino]benzoate] | 1.89 nM |
| CCOc1cc2c(c3c1OC(C)(C)C3)C(c1ccc(C(C)(C)C(=O)O)cc1)=NC(C)(C)C2 [Example 118, 4-(6-Ethoxy-3,4,8,9-tetrahydro-3,3,8,8-tetramethylfuro[2,3-h]isoquinolin-1-yl)-α,α-dimethylbenzeneacetic acid hydrochloride hydrate] | 11.5 nM |
| CCOc1cc2c(c3c1OC(C)(C)C3)C(c1ccc(C#N)c(NCc3ccccc3)c1)=NC(C)(C)C2 [Example 74, 4-(6-Ethoxy-3,4,8,9-tetrahydro-3,3,8,8-tetramethylfuro[2,3-h]isoquinolin-1-yl)-2-[(phenylmethyl)amino]benzonitrile] | 1.71 nM |
| CCOc1cc2c(c3c1OC(C)(C)C3)C(c1ccc(C(=O)OC)c(NC(C)=O)c1)=NC(C)(C)C2 [Example 17, Methyl 2-(acetylamino)-4-(6-ethoxy-3,4,8,9-tetrahydro-3,3,8,8-tetramethylfuro[2,3-h]isoquinolin-1-yl)benzoate] | 4.01 nM |
| CCOc1cc2c(c3c1OC(C)(C)C3)C(c1ccc(C(=O)NC)c(NC(=O)c3ccccc3)c1)=NC(C)(C)C2 [Example 57, 2-(Benzoylamino)-4-(6-ethoxy-3,4,8,9-tetrahydro-3,3,8,8-tetramethylfuro[2,3-h]isoquinolin-1-yl)-N-methylbenzamide] | 1.63 nM |
| CCOc1cc2c(c3c1OC(C)(C)C3)C(c1ccc(C(=O)O)c(NCc3ccccc3)c1)=NC(C)(C)C2 [Example 6, 4-(6-Ethoxy-3,4,8,9-tetrahydro-3,3,8,8-tetramethylfuro[2,3-h]isoquinolin-1-yl)-2-[(phenylmethyl)amino]benzoic acid] | 0.566 nM |
| CCOc1cc2c(c3c1OC(C)(C)C3)C(c1ccc(C(N)=O)c(NC(=O)c3ccccn3)c1)=NC(C)(C)C2 [Example 23, N-[2-(Aminocarbonyl)-5-(6-ethoxy-3,4,8,9-tetrahydro-3,3,8,8-tetramethylfuro[2,3-h]isoquinolin-1-yl)phenyl]-2-pyridinecarboxamide] | 0.756 nM |
| CCOc1cc2c(c3c1OC(C)(C)C3)C(c1ccc(/C=C/C(=O)O)c(OC)c1)=NC(C)(C)C2 [Example 85, (E)-3-[4-(6-Ethoxy-3,4,8,9-tetrahydro-3,3,8,8-tetramethylfuro[2,3-h]isoquinolin-1-yl)-2-methoxyphenyl]-2-propenoic acid] | 5.5 nM |
| CCOc1cc2c(c3c1OC(C)(C)C3)C(c1ccc(C(C)(C)C(N)=O)cc1)=NC(C)(C)C2 [Example 120, 4-(6-Ethoxy-3,4,8,9-tetrahydro-3,3,8,8-tetramethylfuro[2,3-h]isoquinolin-1-yl)-α,α-dimethylbenzeneacetamide] | 3.5 nM |
| CCOc1cc2c(c3c1OC(C)(C)C3)C(c1ccc(C(=O)O)c(NC(=O)c3ccc4ccccc4n3)c1)=NC(C)(C)C2 [Example 30, 4-(6-Ethoxy-3,4,8,9-tetrahydro-3,3,8,8-tetramethylfuro[2,3-h]isoquinolin-1-yl)-2-[(2-quinolinylcarbonyl)amino]benzoic acid] | 0.761 nM |
| CCNc1cc(C2=NC(C)(C)Cc3cc(OCC)c4c(c32)CC(C)(C)O4)ccc1C(=O)O [Example 50, 4-(6-Ethoxy-3,4,8,9-tetrahydro-3,3,8,8-tetramethylfuro[2,3-h]isoquinolin-1-yl)-2-(ethylamino)benzoic acid] | 8.4 nM |
